Patent US20050197336A1 (Miikana Therapeutics Corporation, priority 2004, published 2005)

Legend:
[1] = system: Histone deacetylase (HDAC), HeLa cell nuclear extract; assay: In vitro fluorescent histone deacetylase assay (Biomol kit, HeLa cell nuclear extract); format: biochemical; settings: compound at 100 μM; HeLa cell nuclear extract as HDAC source; substrate 50 μM; 10 min at room temperature
Description: Histone deacetylase (HDAC) activity assays were performed using the HDAC fluorescent activity assay/drug discovery kit (Biomol Research Laboratories, Plymouth Meeting, Pa.) essentially according to the manufacturer's instructions. The included HeLa cell nuclear extract, which contains a mosaic of HDAC enzymes and other nuclear factors, was used as the source of HDAC activity. The final substrate concentration in the assay mixture was 50 μM. The reaction was allowed to proceed for 10 min at room temperature before stopping the reaction. Test compounds were prepared as 20 mM stock solutions in DMSO (Molecular Biology grade, Sigma-Aldrich Co. St. Louis, Mo.) and stored at −70° C. Serial dilutions of test compounds were prepared in assay buffer immediately prior to testing. DMSO was determined in a separate trial to have no significant effect on the activity of this assay at concentrations up to 5%; the final DMSO concentration in the wells was no more than 2% and therefore DMSO effects were safely neglected. Assays were performed in white polystyrene 96-well half-area assay plates (Corning, Corning, N.Y.) and measured on a Wallace 1420 fluorescent plate reader (Wallac Oy, Turku, Finland) with an excitation wavelength of 355 nm, an emission wavelength of 460 nm, and a 1 sec signal averaging time.

MCF7 cells = assay: Whole cell cytotoxicity assay: Sulforhodamine B; format: cell-based, human; settings: compound at 100 μM, MCF7 cell growth, 48 hours with drug, SRB staining; for inhibition at 100 µM: Homo sapiens
Description: The following procedure can be found on the Developmental Therapeutics Program NCI/NIH web site at http://dtp.nci.nih.gov/brancehes/btb/ivclsp.html.
1. Human tumor cell lines of HT29, A549 and MCF7 are grown in DMEM containing 10% fetal bovine serum and 2 mM L-glutamine. Cells are plated in a 96 well plate at a density of 5000 cells per well in 100 μL of growth medium and incubated at 37° C., 5% CO2, for 24 hours prior to the addition of experimental compounds.
2. Experimental drugs are solubilized in DMSO for a final concentration of 20 mM immediately prior to use. Drugs are further diluted in growth media for a total of nine drug concentrations and a growth control. At the 24 hour time point, one plate of cells is fixed in situ with TCA as a measurement of the cell population at time zero, or the time of drug addition.
3. The plates are further incubated with drug for an additional 48 hours.
4. The cells are fixed in situ by gently aspirating off the culture media and then adding 50 μL of ice cold 10% TCA per well and incubated at 4° C. for 60 minutes. The plates are washed with tap water five times and allowed to air dry for 5 minute.
5. 50 μL of a 0.4% (w/v) Sulforhodamine B solution in 1% (v/v) acetic acid is added per well and incubated for 30 minutes at room temperature.
6. Following staining, plates are washed five times with 1% acetic acid to remove any unbound dye and then allowed to air dry for 5 minutes.
7. Stain is solubilized with 100 μL of 10 mM Tris pH 10.5 per well and placed on an orbital rotator for 5 minutes.
8. Absorbance is read at 570 nm.

| Compound | % inhibition HDAC @ 100 μM [1] [%] | inhibition at 100 µM (MCF7 cells) [%] | % inhibition MCF7 cells @ 100 μM (MCF7 cells) [%] |
| --- | --- | --- | --- |
| O=C(NO)c1cnc(N2CCN(S(=O)(=O)c3ccc(-c4cccs4)cc3)CC2)s1 [Example 65, 2-{4-[(4-thien-2-ylphenyl)sulfonyl]piperazin-1-yl}-1,3-thiazole-5-carboxylic acid hydroxamide] | 99 | 95 |  |
| CC(C)N(C)Cc1cccc(-c2ccc(S(=O)(=O)N3CCN(c4ncc(C(=O)NO)s4)CC3)cc2)c1 [Example 87, 2-{4-[(3′-[isopropyl(methyl)amino]methyl]-1,1′-biphenylsulfonyl]-piperazin-1-yl}-1,3-thiazole-5-carboxylic acid hydroxyamide] | 99 | 97.7 |  |
| CCN(CC)Cc1cccc(-c2ccc(S(=O)(=O)N3CCN(c4ncc(C(=O)NO)s4)CC3)cc2)c1.Cl [Example 78] | 100 | 99 |  |
| O=C(NO)c1cnc(N2CCN(S(=O)(=O)c3ccc(OC(F)(F)F)cc3)CC2)s1 [Example 3, 2-[4-(4-trifluoromethoxy-benzenesulfonyl)-piperazin-1-yl]-thiazole-5-carboxylic acid hydroxyamide] | 93 | 95.3 |  |
| O=C(NO)c1cnc(N2CCN(S(=O)(=O)c3ccc(-c4ccc5c(c4)OCO5)cc3)CC2)s1 [Example 60, 2-(4-{[4-(1,3-benzodioxol-5-yl)phenyl]sulfonyl}piperazin-1-yl)-1,3-thiazole-5-carboxylic acid hydroxyamide] | 99 | 92.1 |  |
| O=C(NO)c1cnc(N2CCN(S(=O)(=O)c3ccc(-c4cccnc4)cc3)CC2)s1 [Example 93, 2-[4-{(3-pyrido)benzenesulfonyl}-piperazin-1-yl]-thiazole-5-carboxylic acid hydroxyamide] | 100 | 92.7 |  |
| O=C(NO)c1cnc(N2CCN(S(=O)(=O)c3cccc(Cl)c3)CC2)s1 [Example 18, 2-[4-(3-chlorophenylsulfonyl)-piperazin-1-yl]-thiazole-5-carboxylic acid hydroxyamide] | 95 | 96.6 |  |
| O=C(NO)c1cnc(N2CCN(S(=O)(=O)c3cccnc3)CC2)s1 [Example 49, 2-[4-(pyridine-3-sulfonyl)-piperazin-1-yl]-thiazole-5-carboxylic acid hydroxyamide] | 85 | 95.4 |  |
| CCCCS(=O)(=O)N1CCN(c2ncc(C(=O)NO)s2)CC1 [Example 53, 2-[4-(n-butylsulfonyl)piperazin-1-yl]-thiazole-5-carboxylic acid hydroxyamide] | 94 | 89.9 |  |
| O=C(NO)c1cnc(N2CCN(S(=O)(=O)c3cccc(CN4CCCC4)c3)CC2)s1 [Example 98] | 98 | 92.2 |  |
| O=C(NO)c1cnc(N2CCN(S(=O)(=O)c3cc4ccccc4s3)CC2)s1 [Example 43] | 99 | 91 |  |
| 2-(4-{4-[(3-(pyrrolidin-1-ylmethyl)-2-furyl]phenylsulfonly}piperazin-1-yl)-1,3-thiazole-5-carboxylic acid hydroxyamide [Example 83] | 100 |  | 98 |
| CN1CCOc2cc(S(=O)(=O)N3CCN(c4ncc(C(=O)NO)s4)CC3)ccc21 [Example 48, 2-[4-(N-methyl-2,3-dihydrobenzisoxazinylsulfonyl)-piperazin-1-yl]-thiazole-5-carboxylic acid hydroxyamide] | 96 | 89.4 |  |
| CC(C)(C)c1ccc(S(=O)(=O)N2CCN(c3ncc(C(=O)NO)s3)CC2)cc1 [Example 25, 2-[4-(4-t-butylphenylsulfonyl)-piperazin-1-yl]-thiazole-5-carboxylic acid hydroxyamide] | 98 | 90.1 |  |
| CC(C)(C)c1ccc(-c2ccc(S(=O)(=O)N3CCN(c4ncc(C(=O)NO)s4)CC3)cc2)cc1 [Example 64] | 48 | 87 |  |
| Cc1cc(C)cc(S(=O)(=O)N2CCN(c3ncc(C(=O)NO)s3)CC2)c1 [Example 24, 2-[4-(3,5-dimethylphenylsulfonyl)-piperazin-1-yl]-thiazole-5-carboxylic acid hydroxyamide] | 100 | 95.3 |  |

| Compound | % inhibition HDAC @ 100 μM [1] [%] | inhibition at 100 µM (MCF7 cells) [%] | % inhibition MCF7 cells @ 100 μM (MCF7 cells) [%] |
| --- | --- | --- | --- |
| O=C(NO)c1cnc(N2CCN(S(=O)(=O)c3ccccc3C(F)(F)F)CC2)s1 [Example 37, 2-[4-(2-trifluoromethylphenylsulfonyl)-piperazin-1-yl]-thiazole-5-carboxylic acid hydroxyamide] | 99 | 98 |  |
| O=C(NO)c1cnc(N2CCN(S(=O)(=O)c3ccc(-c4ccsc4CN4CCCC4)cc3)CC2)s1 [Example 82] | 99 | 92.7 |  |
| Cc1ccc(S(=O)(=O)N2CCN(c3ncc(C(=O)NO)s3)CC2)cc1C [Example 50, 2-[4-(3,4-dimethylphenylsulfonyl)-piperazin-1-yl]-thiazole-5-carboxylic acid hydroxyamide] | 99 | 98.3 |  |
| Cc1ccc(S(=O)(=O)N2CCN(c3ncc(C(=O)NO)s3)CC2)cc1Cl [Example 30, 2-[4-(3-chloro-4-methylphenylsulfonyl)-piperazin-1-yl]-thiazole-5-carboxylic acid hydroxyamide] | 99 | 97.9 |  |
| O=C(NO)c1cnc(N2CCN(S(=O)(=O)c3ccc([N+](=O)[O-])cc3)CC2)s1 [Example 6, 2-[4-(4-nitro-benzenesulfonyl)-piperazin-1-yl]-thiazole-5-carboxylic acid hydroxyamide] | 97 | 95.1 |  |
| O=C(NO)c1cnc(N2CCN(S(=O)(=O)c3ccc(-c4cccc(CN5CCCCC5)c4)cc3)CC2)s1 [Example 73] | 100 | 96.7 |  |
| CN(C)Cc1ccc(S(=O)(=O)N2CCN(c3ncc(C(=O)NO)s3)CC2)cc1 [Example 95] | 98 | 96.8 |  |
| CSc1nccc(-c2ccc(S(=O)(=O)N3CCN(c4ncc(C(=O)NO)s4)CC3)s2)n1 [Example 45, 2-[4-(2-{2-methylthiopyrimidine-4-yl}-5-thiophenesulfonyl)-piperazin-1-yl]-thiazole-5-carboxylic acid hydroxyamide] | 95 | 78.7 |  |
| CC(C)(C)OC(=O)n1cccc1-c1ccc(S(=O)(=O)N2CCN(c3ncc(C(=O)NO)s3)CC2)cc1 [Example 66] | 99 | 97 |  |
| O=C(NO)c1cnc(N2CCN(S(=O)(=O)Cc3ccccc3)CC2)s1 [Example 26, 2-[4-(benzylsulfonyl)piperazin-1-yl]-thiazole-5-carboxylic acid hydroxyamide] | 98 | 90 |  |
| O=C(NO)c1cnc(N2CCN(S(=O)(=O)c3cccs3)CC2)s1 [Example 8, 2-[4-(thiophene-2-benzenesulfonyl)-piperazin-1-Yl]-thiazole-5-carboxylic acid hydroxyamide] | 98 | 90.1 |  |
| O=C(NO)c1cnc(N2CCN(S(=O)(=O)c3ccc(-c4sccc4CN4CCCC4)cc3)CC2)s1 [Example 89] | 99 | 98.3 |  |
| O=C(NO)c1cnc(N2CCN(S(=O)(=O)c3ccc(F)cc3)CC2)s1 [Example 11, 2-[4-(4-fluoro-benzenesulfonyl)-piperazin-1-yl]-thiazole-5-carboxylic acid hydroxyamide] | 98 | 96.7 |  |
| O=C(NO)c1cnc(N2CCN(S(=O)(=O)c3ccc(-c4ccncc4)cc3)CC2)s1 [Example 72, 2-{4-[4-(pyridin-4-yl)phenylsulfonyl]piperazin-1-yl}-1,3-thiazole-5-carboxylic acid hydroxyamide] | 98 | 84.5 |  |
| C=CCN(C)Cc1cccc(-c2ccc(S(=O)(=O)N3CCN(c4ncc(C(=O)NO)s4)CC3)cc2)c1.Cl [Example 79] | 99 | 98 |  |
